In brackets after ≈: the same amount, converted by molar mass. Like-named read-outs stand apart in the source and are kept apart here. Blank lines part the entries; values can stand above or below the compound they belong to.
Assays:
[1] = test system: Streptococcus mutans; experiment: Agar diffusion test with Streptococcus mutans (inhibiting zone diameters); type: cell-based; details: for Antibacterial action (in words): 0.003 wt.-%; for Bactericidal effectiveness (in words): concentrations smaller than or equal to 0.01 wt.-%
Procedure: For this purpose, culture suspensions of Streptococcus mutans were added to a liquid Agar comprising yeast extract and dextrose. After the Agar plates had solidified, a hole of 10 mm diameter was cut out, into which 0.1 ml of the solution to be tested was poured in each case. After 24 hours of incubation at 37° C., the diameters of the inhibiting zones were measured for each sample, which were duplicated in each case.

[2] = background, cited from earlier work
[3] = Solubility in common solvents and reactive diluents; type: physicochemical
[4] = Side-effects in use (bitter taste, discolorations, irritations of the mucosa)
[5] = higher concentrations; cited from earlier work
[6] = test system: Streptococcus mutans; details: cited from earlier work
[7] = 0.03 wt. %, 0.1 ml in 10 mm hole, 24 hours, 37° C.

Compound: [H]/N=C(\N/C(=N/[H])NCCCCCCNC(=N)NC(=N)Nc1ccc(Cl)cc1)Nc1ccc(Cl)cc1 [Solution A]
zone of inhibition at 0.003 % ([1]; Streptococcus mutans, 24 h, 0.003 wt. %, 0.1 ml in 10 mm hole, 24 hours, 37° C., * = Not effective, read-out: Inhibiting zone diameter): 11 mm
zone of inhibition at 0.01 % ([1]; Streptococcus mutans, 24 h, 0.01 wt. %, 0.1 ml in 10 mm hole, 24 hours, 37° C., read-out: Inhibiting zone diameter): 13 mm
zone of inhibition at 0.03 % ([1]; Streptococcus mutans, 24 h, 0.03 wt. %, 0.1 ml in 10 mm hole, 24 hours, 37° C., read-out: Inhibiting zone diameter): 17 mm
Solubility (in words) ([2]; listed as digluconate): water-soluble

Compound: [F][Sn][F] [Solution C, stannous difluoride]
Inhibiting zone diameter ([1]; 0.003 wt. %, 0.1 ml in 10 mm hole, 24 hours, 37° C., * = Not effective): 10 mm
Antibacterial action (in words) [1]: Not effective
Antibacterial action (in words) ([1]; listed as stannous difluoride): an antibacterial action can no longer be detected
Inhibiting zone diameter ([1]; 0.01 wt. %, 0.1 ml in 10 mm hole, 24 hours, 37° C.): 11 mm
Inhibiting zone diameter [1, 7]: 20 mm
Antibacterial effectiveness (in words) ([1]; 0.03 wt.-%): even stronger action

Solubility ([3]; Acetone): 0.03 wt. %
Solubility ([3]; Decandiol dimethacrylate (D3 MA)): < 0.005 wt. %
Solubility ([3]; Ethanol): 0.005 wt. %
Solubility ([3]; Ethyl acetate): 0.02 wt. %
Solubility ([3]; Triethylene glycol dimethacrylate (SR-205)): < 0.005 wt. %
Solubility ([3]; Water (pH value 2 to 9.7), read-out: Solubility): 300 µg/mL (≈ 594 µM)
Solubility (in words) ([3]; common solvents): quite a low solubility
Compound: [H]/N=C(\N/C(=N/[H])NCCCCCCNC(=N)NC(=N)Nc1ccc(Cl)cc1)Nc1ccc(Cl)cc1 [chlorohexidine adduct, chlorohexidine hexahydrofluoride]
Inhibiting zone diameter ([1]; 0.003 wt. %, 0.1 ml in 10 mm hole, 24 hours, 37° C., * = Not effective, listed as Solution B): 12 mm
Antibacterial effectiveness (in words) ([1]; 0.01 to 0.003 wt.-%): still very high
Inhibiting zone diameter ([1]; 0.01 wt. %, 0.1 ml in 10 mm hole, 24 hours, 37° C., listed as Solution B): 15 mm
Inhibiting zone diameter [1, 7]: 17 mm
Antibacterial effectiveness (in words) ([1]; 0.03 wt.-%): comparable with that of chlorohexidine gluconate
Antibacterial effectiveness (in words) ([1]; 0.03 wt.-%, listed as adduct according to the invention): completely comparable
Bactericidal effectiveness (in words) [1]: clearly superior to stannous difluoride
Unwanted side-effects (bitter taste, discolorations of tooth materials, irritations of the mucosa) [4]: no unwanted side-effects

Compound: [H]/N=C(\N/C(=N/[H])NCCCCCCNC(=N)NC(=N)Nc1ccc(Cl)cc1)Nc1ccc(Cl)cc1 [chlorohexidine, 1,6-bis-(N^5-p-chlorophenyl-N'-diguanido)-hexane]
Bactericidal effectiveness (in words) [1]: clearly exceeded
Dis-colorations of the tongue, teeth, prostheses and fillings [5]: can lead to unwanted dis-colorations
Effectiveness against bacteria of the type Streptococcus mutans (in words) [6]: effective
Bactericidal effect vis-a-vis Streptococcus mutans (in words) ([6]; small concentrations): greatly weakened

Compound: [H]/N=C(\N/C(=N/[H])NCCCCCCNC(=N)NC(=N)Nc1ccc(Cl)cc1)Nc1ccc(Cl)cc1 [diacetate]
Solubility (in words) [2]: sparingly soluble
